# Measured values taken from PubChem BioAssay AID1259407 (Chemical Carcinogenesis Research Information System (CCRIS), 2018).
# Calls of active or inactive are those of the source. No rule for the calls is given here.
# System: CCRIS mutagenicity, Ames/micronucleus/aberration tests
# Assay: CCRIS mutagenicity studies
# [1] = Test System: AMES SALMONELLA TYPHIMURIUM, Strain/Indicator: TA98, Metabolic Activation: NONE, Method: PREINCUBATION
smiles,measurement,setting,value
CN(C)c1ccc(C(=C2C=CC(=[N+](C)C)C=C2)c2c(O)c(S(=O)(=O)[O-])cc3cc(S(=O)(=O)O)ccc23)cc1,mutagenic call,"Test System: AMES SALMONELLA TYPHIMURIUM, Strain/Indicator: TA98, Metabolic Activation: NONE, Method: STANDARD PLATE",inactive; negative
same,mutagenic call,"Test System: AMES SALMONELLA TYPHIMURIUM, Strain/Indicator: TA98, Metabolic Activation: RAT, LIVER, S-9, AROCLOR 1254, Method: STANDARD PLATE",inactive; negative
same,mutagenic call,"Test System: AMES SALMONELLA TYPHIMURIUM, Strain/Indicator: TA100, Metabolic Activation: NONE, Method: STANDARD PLATE",inactive; negative
same,mutagenic call,"Test System: AMES SALMONELLA TYPHIMURIUM, Strain/Indicator: TA100, Metabolic Activation: RAT, LIVER, S-9, AROCLOR 1254, Method: STANDARD PLATE",inactive; negative
same,mutagenic call,"Test System: AMES SALMONELLA TYPHIMURIUM, Strain/Indicator: TA1535, Metabolic Activation: NONE, Method: STANDARD PLATE",inactive; negative
same,mutagenic call,"Test System: AMES SALMONELLA TYPHIMURIUM, Strain/Indicator: TA1535, Metabolic Activation: RAT, LIVER, S-9, AROCLOR 1254, Method: STANDARD PLATE",inactive; negative
same,mutagenic call,"Test System: AMES SALMONELLA TYPHIMURIUM, Strain/Indicator: TA1538, Metabolic Activation: NONE, Method: STANDARD PLATE",inactive; negative
same,mutagenic call,"Test System: AMES SALMONELLA TYPHIMURIUM, Strain/Indicator: TA1538, Metabolic Activation: RAT, LIVER, S-9, AROCLOR 1254, Method: STANDARD PLATE",inactive; negative
c1cc2c3c(cccc3c1)CC2,mutagenic call,"Test System: AMES SALMONELLA TYPHIMURIUM, Strain/Indicator: TA97, Metabolic Activation: HAMSTER, LIVER, S-9, AROCLOR 1254 (10%), Method: PREINCUBATION",inactive; negative
same,mutagenic call,"Test System: AMES SALMONELLA TYPHIMURIUM, Strain/Indicator: TA97, Metabolic Activation: HAMSTER, LIVER, S-9, AROCLOR 1254 (30%), Method: PREINCUBATION",inactive; negative
same,mutagenic call,"Test System: AMES SALMONELLA TYPHIMURIUM, Strain/Indicator: TA97, Metabolic Activation: NONE, Method: PREINCUBATION",inactive; negative
same,mutagenic call,"Test System: AMES SALMONELLA TYPHIMURIUM, Strain/Indicator: TA97, Metabolic Activation: RAT, LIVER, S-9, AROCLOR 1254 (10%), Method: PREINCUBATION",inactive; negative
same,mutagenic call,"Test System: AMES SALMONELLA TYPHIMURIUM, Strain/Indicator: TA97, Metabolic Activation: RAT, LIVER, S-9, AROCLOR 1254 (30%), Method: PREINCUBATION",inactive; negative
same,mutagenic call,"Test System: AMES SALMONELLA TYPHIMURIUM, Strain/Indicator: TA98, Metabolic Activation: HAMSTER, LIVER, S-9, AROCLOR 1254 (10%), Method: PREINCUBATION",inactive; negative
same,mutagenic call,"Test System: AMES SALMONELLA TYPHIMURIUM, Strain/Indicator: TA98, Metabolic Activation: HAMSTER, LIVER, S-9, AROCLOR 1254 (30%), Method: PREINCUBATION",inactive; negative
same,mutagenic call,[1],inactive; negative
same,mutagenic call,"Test System: AMES SALMONELLA TYPHIMURIUM, Strain/Indicator: TA98, Metabolic Activation: RAT, LIVER, S-9, AROCLOR 1254 (10%), Method: PREINCUBATION",inactive; negative
same,mutagenic call,"Test System: AMES SALMONELLA TYPHIMURIUM, Strain/Indicator: TA98, Metabolic Activation: RAT, LIVER, S-9, AROCLOR 1254 (30%), Method: PREINCUBATION",inactive; negative
same,mutagenic call,"Test System: AMES SALMONELLA TYPHIMURIUM, Strain/Indicator: TA100, Metabolic Activation: HAMSTER, LIVER, S-9, AROCLOR 1254 (10%), Method: PREINCUBATION",inactive; negative
same,mutagenic call,"Test System: AMES SALMONELLA TYPHIMURIUM, Strain/Indicator: TA100, Metabolic Activation: HAMSTER, LIVER, S-9, AROCLOR 1254 (30%), Method: PREINCUBATION",inactive; negative
same,mutagenic call,"Test System: AMES SALMONELLA TYPHIMURIUM, Strain/Indicator: TA100, Metabolic Activation: NONE, Method: PREINCUBATION",inactive; negative
same,mutagenic call,"Test System: AMES SALMONELLA TYPHIMURIUM, Strain/Indicator: TA100, Metabolic Activation: RAT, LIVER, S-9, AROCLOR 1254 (10%), Method: PREINCUBATION",inactive; negative
same,mutagenic call,"Test System: AMES SALMONELLA TYPHIMURIUM, Strain/Indicator: TA100, Metabolic Activation: RAT, LIVER, S-9, AROCLOR 1254 (30%), Method: PREINCUBATION",inactive; negative
same,mutagenic call,"Test System: AMES SALMONELLA TYPHIMURIUM, Strain/Indicator: TA1535, Metabolic Activation: HAMSTER, LIVER, S-9, AROCLOR 1254 (10%), Method: PREINCUBATION",inactive; negative
same,mutagenic call,"Test System: AMES SALMONELLA TYPHIMURIUM, Strain/Indicator: TA1535, Metabolic Activation: HAMSTER, LIVER, S-9, AROCLOR 1254 (30%), Method: PREINCUBATION",inactive; negative
same,mutagenic call,"Test System: AMES SALMONELLA TYPHIMURIUM, Strain/Indicator: TA1535, Metabolic Activation: NONE, Method: PREINCUBATION",inactive; negative
same,mutagenic call,"Test System: AMES SALMONELLA TYPHIMURIUM, Strain/Indicator: TA1535, Metabolic Activation: RAT, LIVER, S-9, AROCLOR 1254 (10%), Method: PREINCUBATION",inactive; negative
same,mutagenic call,"Test System: AMES SALMONELLA TYPHIMURIUM, Strain/Indicator: TA1535, Metabolic Activation: RAT, LIVER, S-9, AROCLOR 1254 (30%), Method: PREINCUBATION",inactive; negative
same,mutagenic call,"Test System: AMES SALMONELLA TYPHIMURIUM, Strain/Indicator: TA1537, Metabolic Activation: HAMSTER, LIVER, S-9, AROCLOR 1254 (30%), Method: PREINCUBATION",inactive; negative
same,mutagenic call,"Test System: AMES SALMONELLA TYPHIMURIUM, Strain/Indicator: TA1537, Metabolic Activation: NONE, Method: PREINCUBATION",inactive; negative
same,mutagenic call,"Test System: AMES SALMONELLA TYPHIMURIUM, Strain/Indicator: TA1537, Metabolic Activation: RAT, LIVER, S-9, AROCLOR 1254 (30%), Method: PREINCUBATION",inactive; negative
Nc1c(N=Nc2ccc(S(=O)(=O)CCOS(=O)(=O)O)cc2)c(S(=O)(=O)O)cc2cc(S(=O)(=O)O)c(N=Nc3ccc(S(=O)(=O)CCOS(=O)(=O)O)cc3)c(O)c12,mutagenic call,"Test System: Ames Salmonella typhimurium, Strain/Indicator: TA98, Metabolic Activation: None, Method: Preincubation",inactive; negative
same,mutagenic call,"Test System: Ames Salmonella typhimurium, Strain/Indicator: TA98, Metabolic Activation: Rat, Liver, S-9, Aroclor 1254, Method: Preincubation",inactive; negative
same,mutagenic call,"Test System: Ames Salmonella typhimurium, Strain/Indicator: TA100, Metabolic Activation: None, Method: Preincubation",inactive; negative
same,mutagenic call,"Test System: Ames Salmonella typhimurium, Strain/Indicator: TA100, Metabolic Activation: Rat, Liver, S-9, Aroclor 1254, Method: Preincubation",inactive; negative
same,mutagenic call,"Test System: Ames Salmonella typhimurium, Strain/Indicator: TA102, Metabolic Activation: None, Method: Preincubation",inactive; negative
same,mutagenic call,"Test System: Ames Salmonella typhimurium, Strain/Indicator: TA102, Metabolic Activation: Rat, Liver, S-9, Aroclor 1254, Method: Preincubation",inactive; negative
same,mutagenic call,"Test System: Ames Salmonella typhimurium, Strain/Indicator: TA1535, Metabolic Activation: None, Method: Preincubation",inactive; negative
same,mutagenic call,"Test System: Ames Salmonella typhimurium, Strain/Indicator: TA1535, Metabolic Activation: Rat, Liver, S-9, Aroclor 1254, Method: Preincubation",inactive; negative
O=[N+]([O-])c1ccc2sc3ccccc3c2c1,mutagenic call,"Test System: AMES SALMONELLA TYPHIMURIUM, Strain/Indicator: TA98 (1,8-DNP6), Metabolic Activation: NONE, Method: PREINCUBATION",active; positive
same,mutagenic call,"Test System: AMES SALMONELLA TYPHIMURIUM, Strain/Indicator: TA98(NR), Metabolic Activation: NONE, Method: PREINCUBATION",active; positive
same,mutagenic call,"Test System: AMES SALMONELLA TYPHIMURIUM, Strain/Indicator: TA98(NR), Metabolic Activation: RAT LIVER S-9, 3-METHYLCHOLANTHRENE (10%), Method: PREINCUBATION",active; positive
same,mutagenic call,[1],active; positive
Oc1ccc2cc3c4ccccc4c4ccccc4c3cc2c1O,mutagenic call,"Test System: AMES SALMONELLA TYPHIMURIUM, Strain/Indicator: TA100, Metabolic Activation: RAT, LIVER, S-9, AROCLOR 1254, Method: PREINCUBATION",active; positive
